For 57 compounds, inhibition and IC50 results are on record in patent US8546579B2, “Bicycloheteroaryl compounds as P2X7 modulators and uses thereof” (Evotec (US) Inc., priority 2006, dated 2013).

Molecules are shown by their SMILES. Read-outs that look alike come from different tables or passages of the source.

The target of this assay is T1, P2X7 receptor (Homo sapiens, UniProt Q99572).
T1 construct: host or cells: THP-1 cells differentiated with LPS and IFN-γ
T1 sequence (Q99572 1-595): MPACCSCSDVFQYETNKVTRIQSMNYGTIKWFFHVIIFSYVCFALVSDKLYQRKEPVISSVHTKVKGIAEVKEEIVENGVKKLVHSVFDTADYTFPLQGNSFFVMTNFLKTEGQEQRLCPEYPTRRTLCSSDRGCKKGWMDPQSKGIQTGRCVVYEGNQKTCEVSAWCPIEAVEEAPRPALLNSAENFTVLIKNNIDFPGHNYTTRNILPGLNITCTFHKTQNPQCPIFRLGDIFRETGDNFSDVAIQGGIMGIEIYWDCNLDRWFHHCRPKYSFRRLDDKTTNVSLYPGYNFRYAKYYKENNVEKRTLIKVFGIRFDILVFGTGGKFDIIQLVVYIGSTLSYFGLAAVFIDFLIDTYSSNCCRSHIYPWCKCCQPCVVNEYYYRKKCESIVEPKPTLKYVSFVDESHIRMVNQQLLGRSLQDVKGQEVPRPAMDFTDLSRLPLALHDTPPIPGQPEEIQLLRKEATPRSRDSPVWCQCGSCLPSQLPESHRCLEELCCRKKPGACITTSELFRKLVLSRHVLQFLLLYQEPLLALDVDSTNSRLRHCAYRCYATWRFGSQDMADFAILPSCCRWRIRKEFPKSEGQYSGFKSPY
The assay is described as follows: IL-1β release assay in differentiated THP-1 cells stimulated with BzATP (Example 9). To be noted: for inhibition at 0.3 µM: 0.3 μM compound, read-out: IL-1β % Inhib. @ 0.3 μM; for inhibition at 0.3 µM / inhibition at 0.1 µM: differentiated THP-1 cells, BzATP 250 uM; for IC50: THP-1 cells, BzATP-stimulated IL-1β release, four parameter logistic fit; for inhibition: THP-1, read-out: IL-1β % Inhib.; for inhibition at 0.1 µM: 0.1 μM compound, symbols * to ****, read-out: IL-1β % Inhib. (asterisk symbols: at 0.1 μM). In kind it is cell-based. Also noted: inhibition: dose or concentration left out as unconfirmed. Summed up: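 THP-1 cells differentiated 16 h with LPS and IFN-γ (100 ng/mL each), re-primed 2 h with LPS, then compound-pretreated 30 min before 250 uM BzATP for 45 min. Supernatant IL-1β quantified by ELISA; background-adjusted percent inhibition fitted to four-parameter logistic for IC50.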

Take `O=C(Nc1cccc2c(=O)n(CCN3CCOCC3)ccc12)c1cc(Cl)ccc1Cl` [Compound 1190]: the inhibition at 0.3 µM ('+' class symbols) was 0 to 25%.
Turning to `COCCn1ccc2c(NC(=O)CCc3cccc(Cl)c3)cccc2c1=O` [Compound 1342], the inhibition at 0.3 µM (symbols + to ++++) was in the range of 0 to 25%.
Still for that read-out and setting: the value for `O=C(Nc1cccc2c(=O)n(Cc3cccnc3)ccc12)c1cc2ccccc2o1` [Compound 1358] was 0 to 25%.
For `CC(C)(C)Cn1ccc2c(NC(=O)CCc3ccc4c(c3)OCO4)cccc2c1=O` [Compound 1055], the inhibition at 0.3 µM ('+' class symbols) fell in the range of 0 to 25%.
Turning to `Cc1cccc(CC(=O)Nc2cccc3c(=O)n(C)ccc23)c1` [Compound 1298], the inhibition at 0.3 µM (symbols + to ++++) lay in the range of 0 to 25%.
On to `COc1ccc(C(=O)Nc2cccc3c(=O)n(CC4CCOCC4)ccc23)cc1Cl` [Compound 1029], for which the inhibition at 0.3 µM ('+' class symbols) is 0 to 25%.
The term IC50 denotes the point on the concentration scale where inhibition reaches its midpoint. `CN(C)CCn1ccc2c(NC(=O)Cc3ccc(Cl)cc3)cccc2c1=O` [Compound 1004] showed a 50% inhibitory concentration (IC50) of 108 nM. In addition, the inhibition at 0.3 µM ('+' class symbols) was at least 76%.
For `Cc1cc(C(=O)Nc2cccc3c(=O)n(CC(C)(C)C)ccc23)ccc1F` [Compound 1279], the inhibition at 0.3 µM (symbols + to ++++) was in the range of 0 to 25%.
On the same count and under the same terms, as for `COCCn1ccc2c(NC(=O)[C@H]3C[C@@H]4CC[C@H]3C4)cccc2c1=O` [Compound 1332], the figure is 0 to 25%.
For `O=C(Cc1ccccc1F)Nc1cccc2c(=O)n(Cc3ccc(OC(F)(F)F)cc3)ccc12` [Compound 1575], the inhibition was 0 to 25%.
On the same count and under the same terms, the value for `CN1CCC(Cn2ccc3c(NC(=O)c4ccc(-c5ccccc5)o4)cccc3c2=O)CC1` [Compound 1458] was 0 to 25%.
`O=C(CCc1cccc(Cl)c1)Nc1cccc2c(=O)n(CCN3CCOCC3)ccc12` [Compound 1242]: the inhibition at 0.3 µM (symbols + to ++++) was in the range of 26 to 50%.
Compound `O=C(CC1CCCCCC1)Nc1cccc2c(=O)n(Cc3ccc4c(c3)OCCO4)ccc12` [Compound 1013, 2-Cycloheptyl-N-[2-(2,3-dihydro-benzo[1,4]dioxin-6-ylmethyl)-1-oxo-1,2-dihydro-isoquinolin-5-yl]-acetamide] yielded an IC50 of 0.355 nM. Under “'+' class symbols”, the inhibition at 0.3 µM was at least 76%.
Take `Cc1ccccc1CC(=O)Nc1cccc2c(=O)n(CCN(C)C)ccc12` [Compound 1157]: the inhibition at 0.3 µM ('+' class symbols) was in the range of 0 to 25%.
Regarding `O=C(Nc1cccc2c(=O)n(CCCN3CCCC3=O)ccc12)C(O)c1ccccc1Cl` (stereo not drawn) [Compound 1531], the inhibition lay within 26 to 50%.
For `O=C(Nc1cccc2c(=O)n(CC3CCOCC3)ccc12)c1cc2ccccc2o1` [Compound 1109], under “'+' class symbols”, the inhibition at 0.3 µM lay in the range of 0 to 25%.
For `COc1cc(OC)cc(C(=O)Nc2cccc3c(=O)n(Cc4cccnc4)ccc23)c1` [Compound 1346], the inhibition at 0.1 µM lay in the range of 51 to 75%.
For the compound `COCCn1ccc2c(NC(=O)Cc3cc(C)ccc3C)cccc2c1=O` [Compound 1066], under “'+' class symbols”, the inhibition at 0.3 µM is 0 to 25%.
Regarding `O=C(Cc1csc2ccccc12)Nc1cccc2c(=O)n(Cc3ccc(OC(F)(F)F)cc3)ccc12` [Compound 1597], the inhibition is 0 to 25%.
On to `O=C(Nc1cccc2c(=O)n(CC3CCOCC3)ccc12)c1cccc2ccccc12` [Compound 1096], for which, where the note is “'+' class symbols”, the inhibition at 0.3 µM lay within 0 to 25%.
On to `O=C(Nc1cccc2c(=O)n(CCN3CCOCC3)ccc12)c1cccc2c1OCCO2` [Compound 1224], for which the inhibition at 0.3 µM (symbols + to ++++) lay within 0 to 25%.
On to `COc1ccc(C(=O)Nc2cccc3c(=O)n(Cc4cccnc4)ccc23)c(C)c1` [Compound 1073], for which the inhibition at 0.3 µM ('+' class symbols) was 0 to 25%.
For `COCCn1ccc2c(NC(=O)c3ccc(Cl)cc3C)cccc2c1=O` [Compound 1325], the inhibition at 0.3 µM (symbols + to ++++) is 26 to 50%.
Regarding `CCOc1ccc(C(=O)Nc2cccc3c(=O)n(Cc4cccnc4)ccc23)cc1` [Compound 1444], the inhibition lay in the range of 0 to 25%.
Still for that read-out and setting: as for `COc1cccc(CCC(=O)Nc2cccc3c(=O)n(CCN(C)C)ccc23)c1` [Compound 1400], the figure is 26 to 50%.
In the case of `CCOc1ccc(CC(=O)Nc2cccc3c(=O)n(CC4CCOCC4)ccc23)cc1` [Compound 1106], the inhibition at 0.3 µM ('+' class symbols) is 0 to 25%.
As to `O=C(Nc1cccc2c(=O)n(Cc3cccnc3)ccc12)c1cccc2ccccc12` [Compound 1447], the inhibition is 0 to 25%.
`CS(=O)(=O)CCn1ccc2c(NC(=O)Cc3ccc(Cl)c(Cl)c3)cccc2c1=O` [Compound 1632] gave an IC50 of 315 nM. Also, for the setting “"+" class symbols”, the inhibition at 0.3 µM fell in the range of 26 to 50%.
For `COc1cccc(CC(=O)Nc2cccc3c(=O)n(Cc4ccc(OC(F)(F)F)cc4)ccc23)c1` [Compound 1580], the inhibition was in the range of 0 to 25%.
Same read-out and setting: as for `Cc1ccccc1CCC(=O)Nc1cccc2c(=O)n(Cc3ccc(OC(F)(F)F)cc3)ccc12` [Compound 1550], the figure is 0 to 25%.
Turning to `O=C(Nc1cccc2c(=O)n(CCN3CCOCC3)ccc12)c1ccccc1Cl` [Compound 1188], the inhibition at 0.3 µM ('+' class symbols) lay within 0 to 25%.
Still for that read-out and setting: as for `Cc1cccc(C(=O)Nc2cccc3c(=O)n(CC4CCOCC4)ccc23)c1` [Compound 1090], the figure is 0 to 25%.
As to `Cc1ccc(CCC(=O)Nc2cccc3c(=O)n(CC(C)(C)C)ccc23)c(C)c1` [Compound 1286], where the note is “symbols + to ++++”, the inhibition at 0.3 µM lay within 0 to 25%.
The same measure, in the same setting: the value for `CCOc1ccc(CC(=O)Nc2cccc3c(=O)n(CC(C)(C)C)ccc23)cc1` [Compound 1261] was 0 to 25%.
Compound `Cc1ccc(CC(=O)Nc2cccc3c(=O)n(CCN(C)C)ccc23)cc1` [Compound 1005] showed an IC50 of 39.6 nM. In addition, the inhibition at 0.3 µM ('+' class symbols) was at least 76%.
On to `CC(C)(C)Cn1ccc2c(NC(=O)CC3CC4CC[C@H]3C4)cccc2c1=O` (stereo partly drawn) [Compound 1270], for which the inhibition at 0.3 µM (symbols + to ++++) was in the range of 0 to 25%.
Consider `Cc1ccc(C)c(C(=O)Nc2cccc3c(=O)n(CC4CCOCC4)ccc23)c1` [Compound 1088], for which the inhibition at 0.3 µM ('+' class symbols) was 0 to 25%.
As to `COCCn1ccc2c(NC(=O)Cc3cc(C)cc(C)c3)cccc2c1=O` [Compound 1331], where the note is “symbols + to ++++”, the inhibition at 0.3 µM lay within 0 to 25%.
Take `COc1ccc(CC(=O)Nc2cccc3c(=O)n(CCCN4CCCC4=O)ccc23)c(OC)c1` [Compound 1535]: the inhibition is 0 to 25%.
On the same count and under the same terms, the value for `Cc1ccccc1CCC(=O)Nc1cccc2c(=O)n(CCCN3CCCC3=O)ccc12` [Compound 1495] was 0 to 25%.
As for `CCOc1ccc(C(=O)Nc2cccc3c(=O)n(CCN4CCOCC4)ccc23)cc1` [Compound 1198], the inhibition at 0.1 µM fell in the range of 0 to 25%.
For the compound `Cc1ccc(C(=O)Nc2cccc3c(=O)n(CCN4CCOCC4)ccc23)cc1Cl` [Compound 1220], where the note is “symbols + to ++++”, the inhibition at 0.3 µM was in the range of 0 to 25%.
As to `C[C@H]1CC[C@H](C(=O)Nc2cccc3c(=O)n(Cc4ccc(OC(F)(F)F)cc4)ccc23)CC1` [Compound 1549], the inhibition lay within 0 to 25%.
On to `Cc1ccc(CC(=O)Nc2cccc3c(=O)n(CC(C)(C)C)ccc23)cc1` [Compound 1262], for which the inhibition at 0.3 µM (symbols + to ++++) is 0 to 25%.
Still for that read-out and setting: as for `CC(C)(C)Cn1ccc2c(NC(=O)c3cccc4ccccc34)cccc2c1=O` [Compound 1249], the figure is 0 to 25%.
Same read-out and setting: as for `COCCn1ccc2c(NC(=O)CC3CC4CC[C@H]3C4)cccc2c1=O` (stereo partly drawn) [Compound 1326], the figure is at least 76%.
Consider `Cc1ccc(C)c(C(=O)Nc2cccc3c(=O)n(C)ccc23)c1` [Compound 1420], for which the inhibition was 0 to 25%.
The same measure, in the same setting: the value for `CN1CCC(Cn2ccc3c(NC(=O)c4ccc5c(c4)OCCCO5)cccc3c2=O)CC1` [Compound 1480] was 0 to 25%.
`O=C(Cc1ccc(Cl)c(C(F)(F)F)c1)Nc1cccc2c(=O)n(Cc3ccccn3)ccc12` [Compound 1628, 2-(4-Chloro-3-trifluoromethyl-phenyl)-N-(1-oxo-2-pyridin-2-ylmethyl-1,2-dihydro-isoquinolin-5-yl)-acetamide] registered an IC50 of 55.9 nM. The inhibition at 0.3 µM ("+" class symbols) was at least 76%.
For `COc1cccc(CCC(=O)Nc2cccc3c(=O)n(CC(C)(C)C)ccc23)c1` [Compound 1049], the inhibition at 0.3 µM ('+' class symbols) is 0 to 25%.
As to `Cn1ccc2c(NC(=O)CCc3cccc(Cl)c3)cccc2c1=O` [Compound 1309], the inhibition at 0.3 µM (symbols + to ++++) was at least 76%.
Turning to `CCOc1ccccc1CC(=O)Nc1cccc2c(=O)n(CC3CCOCC3)ccc12` [Compound 1126], the inhibition at 0.3 µM ('+' class symbols) fell in the range of 0 to 25%.
For the compound `COCCn1ccc2c(NC(=O)Cc3cccc(C)c3)cccc2c1=O` [Compound 1315], where the note is “symbols + to ++++”, the inhibition at 0.3 µM was in the range of 0 to 25%.
In the case of `Cc1ccc(C(=O)Nc2cccc3c(=O)n(CCN4CCOCC4)ccc23)c(C)c1` [Compound 1193], the inhibition at 0.3 µM ('+' class symbols) is 0 to 25%.
Consider `CCOc1ccc(C(=O)Nc2cccc3c(=O)n(CCN(C)C)ccc23)c(O)c1` [Compound 1397], for which the inhibition at 0.1 µM lay in the range of 0 to 25%.
As for `CN1CCC(Cn2ccc3c(NC(=O)Cc4cccc5ccccc45)cccc3c2=O)CC1` [Compound 1470], the inhibition fell in the range of 0 to 25%.
Consider `CC(=O)OCCn1ccc2c(NC(=O)CC3CCCCC3)cccc2c1=O` [Compound 1379], for which it took 41.5 nM to reach half-maximal inhibition (IC50). The inhibition at 0.3 µM (symbols + to ++++) is at least 76%.
